Results reported in PubChem BioAssay (NCI).
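Briefly, cells in 96-well plates were exposed to five compound concentrations for 48 h, and endpoints were estimated by linear interpolation. GI50: concentration for 50% inhibition of growth. TGI: total growth inhibition.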

Key:
Assay in all cases: growth of human tumour cells (NCI), 48 h
[1] = system: A498 renal
[2] = system: SK-MEL-2 melanoma
[3] = system: COLO 205 colon
[4] = system: MOLT-4 leukemia
[5] = system: KM12 colon
[6] = system: OVCAR-4 ovarian
[7] = system: HL-60(TB) leukemia
[8] = system: K-562 leukemia
[9] = system: HCT-15 colon
[10] = system: HT29 colon
[11] = system: UACC-257 melanoma
[12] = system: NCI-H226 lung
[13] = system: SF-539 CNS
[14] = system: T-47D breast
[15] = system: MDA-MB-435
[16] = system: HOP-92 NSCLC
[17] = system: HOP-62 NSCLC
[18] = system: MCF7 breast
[19] = system: SNB-19 CNS
[20] = system: IGROV1 ovarian
[21] = system: SW-620 colon
[22] = system: HCC-2998 colon
[23] = system: SK-MEL-5 melanoma
[24] = system: MALME-3M melanoma
[25] = system: NCI-H522 lung
[26] = system: SF-268 CNS
[27] = system: MDA-MB-231 breast
[28] = system: EKVX NSCLC
[29] = system: SR leukemia
[30] = system: PC-3 prostate
[31] = system: TK-10 renal
[32] = system: OVCAR-3 ovarian
[33] = system: NCI-H460 lung
[34] = system: M14 melanoma
[35] = system: RPMI-8226 leukemia
[36] = system: SF-295 CNS
[37] = system: HS 578T breast
[38] = system: LOX IMVI melanoma
[39] = system: BT-549 breast
[40] = system: OVCAR-8 ovarian
[41] = system: RXF 393 renal
[42] = system: CCRF-CEM leukemia
[43] = system: OVCAR-5 ovarian
[44] = system: SNB-75 CNS
[45] = system: UO-31 renal
[46] = system: SK-MEL-28 melanoma
[47] = system: UACC-62 melanoma
[48] = system: HCT-116 colon
[49] = system: SN12C renal
[50] = system: NCI-H23 lung
[51] = system: NCI/ADR-RES ovarian
[52] = system: A549 NSCLC
[53] = system: SK-OV-3 ovarian
[54] = system: 786-0 renal
[55] = system: CAKI-1 renal
[56] = system: ACHN renal
[57] = system: DU-145 prostate
[58] = system: U251 CNS

Question: Which GI50 [1] does the source give for `CN(C)CCCNc1nccc(-c2c(-c3ccc(F)cc3)nn3cc(C(F)(F)F)ccc23)n1` here?
Answer: 6.53 µM

Question: And the TGI [1]?
Answer: > 25 µM

Question: What about the GI50 [2] of the same compound?
Answer: 5.33 µM

Question: And the TGI [2]?
Answer: 14.2 µM

Question: And the GI50 [3]?
Answer: 4.23 µM

Question: What about the TGI [3] of the same compound?
Answer: 8.71 µM

Question: What about the GI50 [4] of the same compound?
Answer: 6.37 µM

Question: What about the TGI [4] of the same compound?
Answer: 17.3 µM

Question: And the GI50 [5]?
Answer: 8.3 µM

Question: And the TGI [5]?
Answer: > 25 µM

Question: And the GI50 [6]?
Answer: 11 µM

Question: What about the TGI [6] of the same compound?
Answer: > 25 µM

Question: What about the GI50 [7] of the same compound?
Answer: 4.55 µM

Question: What about the TGI [7] of the same compound?
Answer: 10.9 µM

Question: And the GI50 [8]?
Answer: 4.81 µM

Question: And the TGI [8]?
Answer: 14.2 µM

Question: And the GI50 [9]?
Answer: 7.26 µM

Question: What about the TGI [9] of the same compound?
Answer: > 25 µM

Question: And the GI50 [10]?
Answer: 6.58 µM

Question: And the TGI [10]?
Answer: > 23.9 µM

Question: What about the GI50 [11] of the same compound?
Answer: 4.22 µM

Question: What about the TGI [11] of the same compound?
Answer: 8.42 µM

Question: And the GI50 [12]?
Answer: 3.72 µM

Question: And the TGI [12]?
Answer: 11.2 µM

Question: What about the GI50 [13] of the same compound?
Answer: 15.5 µM

Question: And the TGI [13]?
Answer: > 25 µM

Question: What about the GI50 [14] of the same compound?
Answer: 12.5 µM

Question: What about the TGI [14] of the same compound?
Answer: > 25 µM

Question: What about the GI50 [15] of the same compound?
Answer: 5.46 µM

Question: What about the TGI [15] of the same compound?
Answer: 15.2 µM

Question: And the GI50 [16]?
Answer: 3.61 µM

Question: And the TGI [16]?
Answer: > 25 µM

Question: And the GI50 [17]?
Answer: 8.53 µM

Question: What about the TGI [17] of the same compound?
Answer: > 25 µM

Question: What about the GI50 [18] of the same compound?
Answer: 7.77 µM

Question: What about the TGI [18] of the same compound?
Answer: > 18.2 µM

Question: What about the GI50 [19] of the same compound?
Answer: > 19.6 µM

Question: What about the TGI [19] of the same compound?
Answer: > 25 µM

Question: What about the GI50 [20] of the same compound?
Answer: 10.2 µM

Question: And the TGI [20]?
Answer: > 25 µM

Question: And the GI50 [21]?
Answer: 7.33 µM

Question: And the TGI [21]?
Answer: > 25 µM

Question: And the GI50 [22]?
Answer: 4.54 µM

Question: What about the TGI [22] of the same compound?
Answer: 15 µM

Question: And the GI50 [23]?
Answer: 3.48 µM

Question: What about the TGI [23] of the same compound?
Answer: 6.75 µM

Question: And the GI50 [24]?
Answer: 4.32 µM

Question: What about the TGI [24] of the same compound?
Answer: 9.36 µM

Question: What about the GI50 [25] of the same compound?
Answer: 6.77 µM

Question: What about the TGI [25] of the same compound?
Answer: > 25 µM

Question: What about the GI50 [26] of the same compound?
Answer: 9.79 µM

Question: And the TGI [26]?
Answer: > 25 µM

Question: And the GI50 [27]?
Answer: 3.83 µM

Question: And the TGI [27]?
Answer: 11.1 µM

Question: What about the GI50 [28] of the same compound?
Answer: 18.8 µM

Question: What about the TGI [28] of the same compound?
Answer: > 25 µM

Question: And the GI50 [29]?
Answer: 5.15 µM

Question: And the TGI [29]?
Answer: 12.6 µM

Question: What about the GI50 [30] of the same compound?
Answer: 9.36 µM

Question: What about the TGI [30] of the same compound?
Answer: > 25 µM

Question: And the GI50 [31]?
Answer: 12.9 µM

Question: What about the TGI [31] of the same compound?
Answer: > 25 µM

Question: And the GI50 [32]?
Answer: 8.88 µM

Question: And the TGI [32]?
Answer: > 25 µM

Question: And the GI50 [33]?
Answer: 6.97 µM

Question: And the TGI [33]?
Answer: > 25 µM

Question: And the GI50 [34]?
Answer: 4.37 µM

Question: And the TGI [34]?
Answer: 9.06 µM

Question: What about the GI50 [35] of the same compound?
Answer: 10.2 µM

Question: And the TGI [35]?
Answer: > 25 µM

Question: What about the GI50 [36] of the same compound?
Answer: 6.91 µM

Question: What about the TGI [36] of the same compound?
Answer: > 17.2 µM

Question: What about the GI50 [37] of the same compound?
Answer: 7.7 µM

Question: What about the TGI [37] of the same compound?
Answer: > 25 µM

Question: And the GI50 [38]?
Answer: 5.06 µM

Question: And the TGI [38]?
Answer: 15.2 µM

Question: And the GI50 [39]?
Answer: > 23.4 µM

Question: What about the TGI [39] of the same compound?
Answer: > 25 µM

Question: What about the GI50 [40] of the same compound?
Answer: > 20.1 µM

Question: What about the TGI [40] of the same compound?
Answer: > 25 µM

Question: What about the GI50 [41] of the same compound?
Answer: 3.34 µM

Question: And the TGI [41]?
Answer: 9.6 µM

Question: And the GI50 [42]?
Answer: 8.08 µM

Question: What about the TGI [42] of the same compound?
Answer: > 25 µM

Question: What about the GI50 [43] of the same compound?
Answer: 11.2 µM

Question: What about the TGI [43] of the same compound?
Answer: > 25 µM

Question: And the GI50 [44]?
Answer: 5.97 µM

Question: What about the TGI [44] of the same compound?
Answer: > 16.9 µM

Question: And the GI50 [45]?
Answer: 2.91 µM

Question: And the TGI [45]?
Answer: > 25 µM

Question: And the GI50 [46]?
Answer: 4.29 µM

Question: And the TGI [46]?
Answer: 8.49 µM

Question: What about the GI50 [47] of the same compound?
Answer: 4.88 µM

Question: What about the TGI [47] of the same compound?
Answer: 11.1 µM

Question: What about the GI50 [48] of the same compound?
Answer: 8.66 µM

Question: And the TGI [48]?
Answer: > 25 µM

Question: What about the GI50 [49] of the same compound?
Answer: 15.3 µM

Question: And the TGI [49]?
Answer: > 25 µM

Question: What about the GI50 [50] of the same compound?
Answer: > 25 µM

Question: What about the TGI [50] of the same compound?
Answer: > 25 µM

Question: What about the GI50 [51] of the same compound?
Answer: 8.48 µM

Question: What about the TGI [51] of the same compound?
Answer: > 25 µM

Question: And the GI50 [52]?
Answer: > 21.5 µM

Question: What about the TGI [52] of the same compound?
Answer: > 25 µM

Question: And the GI50 [53]?
Answer: 20.1 µM

Question: What about the TGI [53] of the same compound?
Answer: > 25 µM

Question: And the GI50 [54]?
Answer: 7.69 µM

Question: And the TGI [54]?
Answer: > 25 µM

Question: And the GI50 [55]?
Answer: 12.3 µM

Question: What about the TGI [55] of the same compound?
Answer: > 25 µM

Question: What about the GI50 [56] of the same compound?
Answer: 10.3 µM

Question: What about the TGI [56] of the same compound?
Answer: > 25 µM

Question: What about the GI50 [57] of the same compound?
Answer: > 16.6 µM

Question: And the TGI [57]?
Answer: > 25 µM

Question: What about the GI50 [58] of the same compound?
Answer: 10.7 µM

Question: And the TGI [58]?
Answer: > 25 µM
